{"source": "patent US20190169574A1", "about": "“IN VITRO PRODUCTION OF PANCREATIC BETA CELLS” (NESTEC S.A., priority 2016, published 2019)", "key": {"[1]": {"test_system": "MAFA", "assay": "MAFA detection by immunohistochemistry", "assay_type": "cell-based", "settings": "as early as at D9 of differentiation; FIG. 7", "source_text": "(§1) Moreover, culturing the PE cells in suspension or in transwell culture systems in presence of Isx9 is showing the same effect of improved glucose-dependent insulin response as shown in FIG. 5 and FIG. 6. […] Both markers are critical for mediating the response of insulin secretion mediated by glucose. The expression of MAFA can also be unprecedently detected by immunohistochemistry as early as at D9 of differentiation as shown in FIG. 7."}, "[2]": {"test_system": "adult neural stem cell", "settings": "in vitro and in vivo; cited from earlier work"}, "[3]": {"test_system": "PE cells", "assay": "Dose response test: toxicity and morphology of PE cell aggregates in culture with increasing doses of Isx9", "assay_type": "cell-based", "settings": "FIG. 1", "procedure": "FIG. 1: Morphological analysis of PE cells in culture with increasing doses of Isx9. PE cells were cultured in suspension without Isx9 (DMSO control carrier), and with increasing concentrations of Isx9 (6 μM, 12 μM, 24 μM, 48 μM and 60 μM) for 4 days and 8 days. 5× and 10× magnification pictures have been collected for each condition and time point.\nDose response tests have been performed to determine toxicity of Isx9 and the optimal concentration of Isx9 to be tested for beta cell differentiation in vitro. High concentrations of Isx9 (from 24 μM up to 60 μM) appears to be toxic as the aggregates of PE cells become cystic after 8 days in culture as shown in FIG. 1. In contrast, the morphology of the aggregates of PE cells is unchanged as compared to the control DMSO condition when using 6 and 12 μM of Isx9. In order to maintain physiological condition, a concentration of 6 μM of Isx9 has been used for the entire protocol. Exposure of maturing beta cells to Isx9 for 13 days is increasing the glucose-stimulated insulin secretion of the cells as compared to the control DMSO condition (FIG. 2). This effect is correlated with the duration of exposure to Isx9 at 6 uM. […] Isx9 induces an increase in RNA expression levels of endocrine markers such as Ngn3, but also beta cell markers as NeuroD1 and Nkx2.2."}, "[4]": {"test_system": "human cadaveric islets", "settings": "islets that produced low levels of insulin due to prolonged culture; cited from earlier work"}, "[5]": {"test_system": "iPSC-derived maturing beta cells", "assay": "In vitro glucose-stimulated insulin secretion test", "assay_type": "cell-based", "procedure": "FIG. 2: Exposure of PE cells to Isx9 induces glucose response properties to the cells. A: Scheme of the protocol setup. Maturing beta cells have been exposed to DMSO or Isx9 (6 μM) for 13 days, 7 days or 2 days during the maturation step. B: In vitro glucose-stimulated Insulin secretion test have been performed to measure secretion of Insulin in each condition (No Isx9, 13 days Isx9, 7 days Isx9 or 2 days Isx9) induced by low glucose concentration (2 mM) or high glucose concentration (20 mM). The stimulation index of Insulin secretion is determined between the 2 concentrations of glucose on the y axis. FIG. 4: Exposure of PE cells to Isx9 in two-steps increases glucose response properties to the cells. A: Scheme of the protocol setup. In a first step, PE cells have been exposed to DMSO (condition 1) or Isx9 (6 μM) for 2-6 days (condition 2). In a second step, maturing beta cells have been exposed to DMSO (condition 3) or Isx9 (6 uM) for 10 days (condition 4). B: In vitro glucose-stimulated Insulin secretion test have been performed to measure secretion of Insulin in each condition, induced by low glucose concentration (2 mM) or high glucose concentration (20 mM). The stimulation index of Insulin secretion is determined between the 2 concentrations of glucose on they axis. In order from left to right: NKX6.1, Pdx1, NGN3, NKX2-2, NeuroD1. Frozen PE cells were thawed and cultured for 1 day in I medium containing 10 U/mL DNase I in ULA 6WP flat-bottomed plates. The PE cells were subsequently transferred to S3 BASE medium (MCDB131, 8 mM D-glucose, 1.23 g/L NaHCO3, 2% FFA BSA, 1:200 ITX-X, 2 mM glutamax, 100×PS and 0.25 mM vitamin C) containing 50 ng/mL KGF, 0.25 μM Sant1, 100 nM RA and 10 μM Y and cultured for a further 2 days. The resulting cells were then cultured for 4 days using an air-liquid interface culture protocol in Transwell plates. […]"}, "[6]": {"test_system": "maturing beta cells", "assay": "Analysis of the cell composition of the maturing beta cells (insulin positive cells)", "assay_type": "cell-based", "settings": "Isx9 added", "source_text": "FIG. 7: FACS sorting of cells\nas §1"}, "[7]": {"test_system": "PE cells / in vitro maturing beta cells", "assay": "RNA / gene expression levels of endocrine progenitor and beta cell markers", "assay_type": "cell-based", "procedure": "FIG. 3: Early exposure of PE cells to Isx9 increases gene expression levels of endocrine progenitors as well as mature beta cell markers. A: Scheme of the protocol setup. B: Early exposure of PE cells to Isx9 (6 μM) for 2-6 days (condition 3) increases RNA expression levels of Ngn3, Nkx2.2 and NeuroD1 at D13 of differentiation, as compared to DMSO exposure (condition 1). The increase of Nkx2.2 RNA expression levels is maintained at D23 of differentiation when in vitro maturing beta cells are exposed to Isx9 (6 uM) in a two-step protocol (condition 4). Controls are represented by primary human islets. First bar of each pair is 2 mM and second bar is at 20 mM. Frozen PE cells were thawed and cultured for 1 day in I medium containing 10 U/mL DNase I in ULA 6WP flat-bottomed plates. The PE cells were subsequently transferred to S3 BASE medium (MCDB131, 8 mM D-glucose, 1.23 g/L NaHCO3, 2% FFA BSA, 1:200 ITX-X, 2 mM glutamax, 100×PS and 0.25 mM vitamin C) containing 50 ng/mL KGF, 0.25 μM Sant1, 100 nM RA and 10 μM Y and cultured for a further 2 days. The resulting cells were then cultured for 4 days using an air-liquid interface culture protocol in Transwell plates. The culture was carried out in S5 BASE medium (MCDB131, 20 mM D-glucose, 1.754 g/L NaHCO3, 2% FFA BSA, 1:200 ITX-X, 2 mM glutamax, 100×PS, 0.25 mM vitamin C and […] heparin) containing 100 nM RA, 1 μM XXI, 0.25 μM Sant1, 10 μM Alk5i II, 1 μM T3, 20 ng/mL beta-cellulin, 10 μM Y and 6 μM isoxazole 9 (ISX-9). Subsequently, the medium was exchanged for S5 BASE medium containing 25 nM RA, 1 μM XXI, 10 μM Alk5i II, 1 μM T3, 20 ng/mL beta-cellulin and 10 μM Y and the cells were cultured for a further 3 days. ISX-9 was not present in this medium. Finally, the medium was exchanged for S6 BASE medium (CMRL 1066, 10% FBS and 100×PS) containing 10 μM Alk5i II, 1 μM T3 and 10 μM Y and the cells were cultured for a further 15 days. ISX-9 was added to this medium at a concentration of 6 μM for the final 14 days of culture (i.e. the first day of culture in this step was carried out in the absence of ISX-9)."}, "[8]": {"settings": "Isx9 6 μM early exposure of PE cells for 2-6 days vs DMSO, D13 of differentiation, FIG. 3"}}}
{"smiles": "O=C(NC1CC1)c1cc(-c2cccs2)on1", "note": "[Isx9, Isoxazole 9]", "values": [{"measurement": "expression of MAFA by immunohistochemistry", "setting": "[1]", "result": "detected"}, {"measurement": "adult neural stem cell differentiation", "setting": "[2]", "result": "induce"}, {"measurement": "morphology of the aggregates of PE cells as compared to the control DMSO condition", "setting": "[3]; 6 and 12 μM of Isx9", "result": "unchanged"}, {"measurement": "toxicity (aggregates of PE cells become cystic)", "setting": "[3]; high concentrations, from 24 μM up to 60 μM, after 8 days in culture", "result": "toxic"}, {"measurement": "expression and secretion of insulin", "setting": "[4]", "result": "increase"}, {"measurement": "effect of Isx9 on glucose response when added in a first step at the PE cell stage (two-step protocol)", "setting": "[5]; Isx9 6 μM, first step 2-6 days at PE stage, second step 10 days, FIG. 3 and FIG. 4", "result": "reinforced"}, {"measurement": "glucose-dependent insulin response", "setting": "[5]; PE cells cultured in suspension or in transwell culture systems in presence of Isx9, FIG. 5 and FIG. 6", "result": "improved"}, {"measurement": "glucose-stimulated insulin secretion of the cells as compared to the control DMSO condition", "setting": "[5]; maturing beta cells exposed to Isx9 6 μM for 13 days, 2 mM vs 20 mM glucose, effect correlated with duration of exposure, FIG. 2", "result": "increasing"}, {"measurement": "number or quantity of insulin positive cells as compared to DMSO", "setting": "[6]", "result": "does not receal an increase"}, {"measurement": "RNA expression level of NeuroD1", "setting": "[7]; [8]", "result": "increases"}, {"measurement": "RNA expression level of Ngn3", "setting": "[7]; [8]", "result": "increases"}, {"measurement": "RNA expression level of Nkx2.2", "setting": "[7]; [8]", "result": "increases"}, {"measurement": "increase of Nkx2.2 RNA expression levels at D23", "setting": "[7]; Isx9 6 uM two-step protocol (condition 4), D23 of differentiation, FIG. 3", "result": "maintained"}, {"measurement": "MAFA gene expression level", "setting": "[7]; in presence of Isx9", "result": "increase"}, {"measurement": "PCSK1 gene expression level", "setting": "[7]; in presence of Isx9", "result": "increase"}]}
